In patent US11365410B2, “Production and monitoring of metabolites in cells” (President and Fellows of Harvard College, priority 2015, dated 2022):

Legend:
[1] = biological target: T1, TtgR (Pseudomonas putida), regulator sequence SEQ ID NO: 14 (Pseudomonas putida, UniProt Q9AIU0); type: cell-based
T1 construct: expressed in transfected cells; host or cells: E. coli DH5alpha transformed with pJKR-H (high copy) or pJKR-L (low copy) plasmid
Description: (§1) DH5α cells transformed with pJKR plasmids and maintained with carbenicillin were used in the induction assays. For each induction evaluation experiment, the cells were grown overnight to saturation before being diluted 1:100 into fresh LB media and incubated at 200 RPM and 37° C. After four hours, 150 μl of the log-phase cells were transferred to 96-well plates and stock inducer was added to achieve the desired range of induction concentrations. Three separate wells were inoculated and independently supplemented with the appropriate amount of inducing chemical for each level of induction. Measurements were made on the same Biotek (Winooksi, Vt.) HT plate reader using the same settings: excitation 485/20, emission 528/20, 37° C. and fast shaking. Fluorescence and absorbance were measured every 10 minutes for 15 hours. Fluorescence was measured in arbitrary units (AFU) while optical density was determined by absorbance (OD). Normalized fluorescence was determined by dividing fluorescence by optical density for a given measurement. Five independent wells containing control strains, transformed with pUC19, were included to provide a measurement of background autofluorescence.

[2] = system: muconate biosensor benM in BL21 cells; assay: Real-time muconate monitoring from pathway intermediates with benM biosensor; type: cell-based, E. coli; conditions: strain with muconate biosynthesis pathway
Source text: A cell was genetically modified to include the muconate biosensor benM regulating production of a fluorescent molecule, and a LysR-type transcriptional regulator derived from Acinetobacter baylyi (see Craven, S. H., Ezezika, O. C., Haddad, S., Hall, R. A., Momany, C. and Neidle, E. L. (2009) Inducer responses of BenM, a LysR-type transcriptional regulator from Acinetobacter baylyi ADP1. Mol Microbiol, 72, 881-894 hereby incorporated by reference in its entirety). This setup is analogous to the previously described muconate artificial selection in which benM controls expression of an antibiotic resistance gene (see Raman, S., Rogers, J. K., Taylor, N. D. and Church, G. M. (2014) Evolution-guided optimization of biosynthetic pathways. Proceedings of the National Academy of Sciences of the United States of America, 111, 17803-17808 hereby incorporated by reference in its entirety. In order to achieve various muconate production rates for real-time observation, muconate was produced from a range of precursor molecules by implementing the biosynthetic pathway developed by Draths and Frost (see Niu, W., Draths, K. M. and Frost, J. W. (2002) Benzene-free synthesis of adipic acid. Biotechnology progress, 18, 201-211 and Draths, K. M. and Frost, J. W. (1994) Environmentally Compatible Synthesis of Adipic Acid from D-Glucose. […]
Muconate production monitoring was carried out in BL21 cells doubly transformed with pJKR-H-benM and the muconate production plasmid. […] After four hours, 150 μl of the log-phase cells were transferred to 96-well plates and monitored in the plate reader. After one hour, the specified concentration of pathway intermediate was added in triplicate and fluorescence monitoring was resumed. […] The quantity of muconate in the supernatant was determined by HPLC. […]

[3] = system: glucarate biosensor cdaR in BL21 cells; assay: Real-time glucarate monitoring from pathway intermediates with cdaR biosensor; type: cell-based, E. coli; conditions: strain with biosensor and biosynthesis pathway
Description: In representative examples, identical production conditions (genetics, media composition) were maintained but the exogenously supplemented precursor molecules were varied. […] The end-point fluorescence achieved by the addition of myo-inositol is just 20% that of glucuronate addition.
Glucarate production monitoring was carried out in BL21 cells doubly transformed with pJKR-H-cdaR and pJKR-GA-EXP. BL21 transformed with pJKR-H-cdaR alone was used as a control. Overnight cultures back-diluted 1:100 into Davis media supplemented with 5 g/L glucose. After four hours incubating at 200 RPM and 37° C., 150 μl of the log-phase cells were transferred to 96-well plates and exposed to 1 mM IPTG with the pathway intermediates described. […] End-point measurements were taken after eight hours. Glucarate production for titer measurement was carried out in BL21 transformed with pJKR-GA-EXP. An overnight culture was inoculated 1:100 into 1 mL of LB supplemented with 1 mM IPTG and the specified concentration of pathway intermediate. Production took place in 96-well blocks at 900 RPM and 37° C. for eight hours before supernatants were isolated and 0.2 μm filtered for LC/MS. All production runs were setup in triplicate. Error bars represent the 95% confidence interval derived from the standard error of the mean.

[4] = system: inducible promoter driving sfGFP in DH5α cells; assay: Hill-function fit of maximum GFP expression rate to inducer concentration; type: cell-based, E. coli
Description: The GFP expression rate was calculated at each time-point with the formula ΔGFP/OD. Scipy was used to perform a non-linear least-squares fit of the maximum GFP expression rate to the corresponding inducer concentration using the Hill function
Vmax is the maximum rate of GFP expression, Vmin is basal rate of GFP expression, I is the concentration of inducer, h is the hill coefficient and KL is the lumped half-maximal parameter described in Results. The variance of each parameter was determined from the least-squares covariance matrix.
A model of gene activation is applied as described herein to relate promoter activity to inducer concentration. Promoter activity is defined as the time derivative of fluorescence corrected for cell growth. […] Gene expression rates were fit to a Hill function adapted to account for both the maximum velocity of gene expression and the basal expression of the uninduced cells.

TtgR biosensor = TtgR biosensor induction with phenol and related compounds; type: cell-based, E. coli; conditions: 0.1% phenol, 0.1% catechol, up to 0.4% benzene; fluorescence after 90 minutes
Description: All experiments were carried out in triplicate.
as §1

For `CC(C)c1ccc(C(=O)O)cc1` [Cumate, cumate], the “Activation of TtgR by cumate” value ([1]; cross-reactivity panel, 20 μM) was “not activated”.

For `O=C(O)c1ccc(O)c(O)c1` [protocatechuate], the “fluorescence response of muconate biosensor” value [2] was “rapid fluorescence response”.

For `O[C@H]1[C@H](O)[C@@H](O)[C@H](O)[C@@H](O)[C@H]1O` [myo-inositol], the “lag of fluorescence response behind glucuronate” value [3] was 60 min and the “end-point fluorescence relative to that of glucuronate addition” value ([3]; eight hours) was 20%.

`O=C(O)[C@H]1OC(O)[C@H](O)[C@@H](O)[C@@H]1O` (mixture of isomers) [glucuronate] was tested, and the “end-point fluorescence relative to that of glucarate” value ([3]; eight hours) was 80%.

With `Oc1ccccc1` [Phenol, phenol] the “Activation of TtgR sensor” value ([1]; 0.1%, 90 min) was “only phenol activated the sensor”.

In the case of AraC, the “Basal Expression Velocity” value ([4]; High copy number plasmid) is reported as 20 ± 50 s⁻¹ and the “Basal Expression Velocity” value ([4]; Low copy number plasmid) is reported as 40 ± 30 s⁻¹.

`O=C(O)C1=CC(=O)[C@@H](O)[C@H](O)C1` [DHS, 3-dehydroshikimate] was tested, and the “fluorescence response of muconate biosensor” value [2] was “rapid fluorescence response”.

For `Oc1ccccc1O` [catechol], the “fluorescent response of TtgR biosensor” value (TtgR biosensor) was “did not activate the sensor” and the “fluorescence response of muconate biosensor” value [2] was “rapid fluorescence response”.
